Laboratory results reported in US11932636B2, “RAD51 inhibitors” (Cyteir Therapeutics, Inc., priority 2019, dated 2024).

test system: Daudi cells (AID positive); assay: Compound primary screening: cell death in AID positive Daudi cells (Cell-Titer Glo, Day 7); format: cell-based; conditions: Homo sapiens, 168 h; Daudi cells, AID positive; cell death on Day 7, Cell-Titer Glo; read-out: Cellular activity in AID + (Daudi)
In short: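 AID-positive Daudi cells were seeded at 1250 cells per well and treated with serially diluted compound delivered from a DMSO/media master plate. Cultures were incubated at 37 °C, and cell death was measured on Day 7 with Cell-Titer Glo luminescence.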

Row | Compound | EC50 [nM]
1 | CCNS(=O)(=O)c1cc(CNc2ncc[nH]2)ccc1-c1cnc([C@H]2CC[C@H](NC(=O)OC(C)C)CC2)s1 [Compound 73, isopropyl trans-N-[4-[5-[2-(ethylsulfamoyl)-4-[(1H-imidazol-2-ylamino)methyl]phenyl]thiazol-2-yl]cyclohexyl]carbamate] | 1000 to 10000
2 | CCNS(=O)(=O)c1cc(CNc2ncco2)ccc1-c1cnc([C@H]2CC[C@H](NC(=O)OC(C)C)CC2)s1 [Compound 74, isopropyl trans-N-[4-[5-[2-(ethylsulfamoyl)-4-[(oxazol-2-ylamino)methyl]phenyl]thiazol-2-yl]cyclohexyl]carbamate] | 100 to 1000
3 | CCNS(=O)(=O)c1cc(-c2ncc[nH]2)ccc1-c1cnc([C@H]2CC[C@H](NC(=O)OC(C)C)CC2)s1 [Compound 75, isopropyl trans-N-[4-[5-[2-(ethylsulfamoyl)-4-(1H-imidazol-2-yl)phenyl]thiazol-2-yl]cyclohexyl]carbamate] | 1000 to 10000
4 | CCNS(=O)(=O)c1cc(CC(=O)OC)ccc1-c1cnc([C@H]2CC[C@H](NC(=O)OC(C)C)CC2)s1 [Compound 76, methyl trans-2-[3-(ethylsulfamoyl)-4-[2-[4-(isopropoxycarbonylamino)cyclohexyl]thiazol-5-yl]phenyl]acetate] | 1000 to 10000
5 | CCNS(=O)(=O)c1cc(CC(=O)O)ccc1-c1cnc([C@H]2CC[C@H](NC(=O)OC(C)C)CC2)s1 [Compound 77, trans-2-[3-(ethylsulfamoyl)-4-[2-[4-(isopropoxycarbonyl-amino)cyclohexyl]thiazol-5-yl]phenyl]acetic Acid] | 1000 to 10000
6 | CCNS(=O)(=O)c1cc(Cc2ncc[nH]2)ccc1-c1cnc([C@H]2CC[C@H](NC(=O)OC(C)C)CC2)s1 [Compound 78, isopropyl trans-N-[4-[5-[2-(ethylsulfamoyl)-4-(1H-imidazol-2-ylmethyl)phenyl]thiazol-2-yl]cyclohexyl]carbamate] | 1000 to 10000
7 | CCNS(=O)(=O)c1cc(CC(=O)NCc2ccccc2)ccc1-c1cnc([C@H]2CC[C@H](NC(=O)OC(C)C)CC2)s1 [Compound 79, isopropyl trans-N-[4-[5-[4-[2-(benzylamino)-2-oxo-ethyl]-2-(ethyl-sulfamoyl)phenyl]thiazol-2-yl]cyclohexyl]carbamate] | < 100
8 | CCNS(=O)(=O)c1cc(CC(=O)N(C)C(C)C)ccc1-c1cnc([C@H]2CC[C@H](NC(=O)OC(C)C)CC2)s1 [Compound 80, isopropyl trans-N-[4-[5-[4-[2-(isopropyl(methyl)amino)-2-oxo-ethyl]-2-(ethyl-sulfamoyl)phenyl]thiazol-2-yl]cyclohexyl]carbamate] | 100 to 1000
9 | CCNS(=O)(=O)c1cc(CC(=O)N(C)Cc2ccccc2)ccc1-c1cnc([C@H]2CC[C@H](NC(=O)OC(C)C)CC2)s1 [Compound 81, isopropyl trans-N-[4-[5-[4-[2-(benzyl(methyl)amino)-2-oxo-ethyl]-2-(ethyl-sulfamoyl)phenyl]thiazol-2-yl]cyclohexyl]carbamate] | 100 to 1000
10 | CCNS(=O)(=O)c1cc(CC(=O)N2CCCC2)ccc1-c1cnc([C@H]2CC[C@H](NC(=O)OC(C)C)CC2)s1 [Compound 82, isopropyl trans-N-[4-[5-[4-[2-oxo-2-(pyrrolidin-1-yl)ethyl]-2-(ethyl-sulfamoyl)phenyl]thiazol-2-yl]cyclohexyl]carbamate] | 100 to 1000
11 | CCNS(=O)(=O)c1cc(CC(=O)N2CCCCC2)ccc1-c1cnc([C@H]2CC[C@H](NC(=O)OC(C)C)CC2)s1 [Compound 83, isopropyl trans-N-[4-[5-[4-[2-oxo-2-(piperidin-1-yl)ethyl]-2-(ethyl-sulfamoyl)phenyl]thiazol-2-yl]cyclohexyl]carbamate] | 100 to 1000
12 | CCNS(=O)(=O)c1cc(CC(=O)N2CCOCC2)ccc1-c1cnc([C@H]2CC[C@H](NC(=O)OC(C)C)CC2)s1 [Compound 84, isopropyl trans-N-[4-[5-[4-[2-oxo-2-(morpholin-4-yl)ethyl]-2-(ethyl-sulfamoyl)phenyl]thiazol-2-yl]cyclohexyl]carbamate] | 100 to 1000
13 | CCNS(=O)(=O)c1cc(CC(=O)N2CC(O)C2)ccc1-c1cnc([C@H]2CC[C@H](NC(=O)OC(C)C)CC2)s1 [Compound 85, isopropyl trans-N-[4-[5-[4-[2-oxo-2-(3-hydroxyazetidin-1-yl)ethyl]-2-(ethyl-sulfamoyl)phenyl]thiazol-2-yl]cyclohexyl]carbamate] | 100 to 1000
14 | CCNS(=O)(=O)c1cc(CC(N)=O)ccc1-c1cnc([C@H]2CC[C@H](NC(=O)OC(C)C)CC2)s1 [Compound 86, isopropyl trans-N-[4-[5-[4-[2-amino-2-oxo-ethyl]-2-(ethyl-sulfamoyl)phenyl]thiazol-2-yl]cyclohexyl]carbamate] | 100 to 1000
15 | CCNS(=O)(=O)c1cc(CC(=O)N2CCC2)ccc1-c1cnc([C@H]2CC[C@H](NC(=O)OC(C)C)CC2)s1 [Compound 87, isopropyl trans-N-[4-[5-[4-[2-oxo-2-(azetidin-1-yl)ethyl]-2-(ethyl-sulfamoyl)phenyl]thiazol-2-yl]cyclohexyl]carbamate] | 100 to 1000
16 | CC(C)OC(=O)N[C@H]1CC[C@H](c2ncc(-c3ccc(N)cc3S(=O)(=O)N3CCCC3)s2)CC1 [Compound 88, isopropyl trans-N-[4-[5-(4-amino-2-pyrrolidin-1-ylsulfonyl-phenyl)thiazol-2-yl]cyclohexyl]carbamate] | 100 to 1000
17 | CNc1ccc(-c2cnc([C@H]3CC[C@H](NC(=O)OC(C)C)CC3)s2)c(S(=O)(=O)N2CCCC2)c1 [Compound 89, isopropyl trans-N-[4-[5-(4-(methylamino)-2-pyrrolidin-1-ylsulfonyl-phenyl)thiazol-2-yl]cyclohexyl]carbamate] | 100 to 1000
18 | CC(C)OC(=O)N[C@H]1CC[C@H](c2ncc(-c3ccc(Nc4ncc[nH]4)cc3S(N)(=O)=O)s2)CC1 [Compound 90, isopropyl trans-N-[4-[5-[4-(1H-imidazol-2-ylamino)-2-sulfamoyl-phenyl]thiazol-2-yl]cyclohexyl]carbamate] | 100 to 1000
19 | CC(C)OC(=O)N[C@H]1CC[C@H](c2ncc(-c3ccc(Nc4ncc[nH]4)cc3S(=O)(=O)N(C)C)s2)CC1 [Compound 91, isopropyl trans-N-[4-[5-[2-(dimethylsulfamoyl)-4-(1H-imidazol-2-ylamino)phenyl]thiazol-2-yl]cyclohexyl]carbamate] | 100 to 1000
20 | CC(C)OC(=O)N[C@H]1CC[C@H](c2ncc(-c3ccc(Nc4ncc[nH]4)cc3S(=O)(=O)N3CCCC3)s2)CC1 [Compound 92, isopropyl trans-N-[4-[5-[4-(1H-imidazol-2-ylamino)-2-pyrrolidin-1-ylsulfonyl-phenyl]thiazol-2-yl]cyclohexyl]carbamate] | 100 to 1000
21 | CNS(=O)(=O)c1ccccc1-c1cnc([C@H]2CC[C@H](NC(=O)OC(C)C)CC2)s1 [Compound 93, isopropyl trans-N-[4-[5-(2-methylsulfamoylphenyl)thiazol-2-yl]cyclohexyl]carbamate] | 1000 to 10000
22 | CCNS(=O)(=O)c1cc(C(=O)Nc2ncc[nH]2)ccc1-c1cnc([C@H]2CC[C@H](NC(=O)OC(C)C)CC2)s1 [Compound 94, isopropyl trans-N-[4-[5-[2-(ethylsulfamoyl)-4-(1H-imidazol-2-ylcarbamoyl)phenyl]thiazol-2-yl]cyclohexyl]carbamate] | < 100
23 | CCNS(=O)(=O)c1cc(C(=O)N2CCCC2)ccc1-c1cnc([C@H]2CC[C@H](NC(=O)OC(C)C)CC2)s1 [Compound 95, isopropyl trans-N-[4-[5-[4-pyrrolidin-1-ylcarbonyl-2-(ethylsulfamoyl)phenyl]thiazol-2-yl]cyclohexyl]carbamate] | 100 to 1000
24 | CCNS(=O)(=O)c1cc(CC(=O)NC(C)C)ccc1-c1cnc(N2CCN(C(=O)OC3COC3)CC2)s1 [Compound 96, oxetan-3-yl 4-(5-(2-(N-ethylsulfamoyl)-4-(2-(isopropylamino)-2-oxoethyl)phenyl)thiazol-2-yl)piperazine-1-carboxylate] | > 10000
25 | CC(C)OC(=O)N[C@H]1CC[C@H](c2ncc(-c3ccc(CC(=O)NCc4ccccc4)cc3S(=O)(=O)NC(C)(C)C)s2)CC1 [Compound 97, isopropyl trans-N-[4-[5-[4-[2-(benzylamino)-2-oxo-ethyl]-2-(tert-butylsulfamoyl)phenyl]thiazol-2-yl]cyclohexyl]carbamate] | < 100
26 | CC(C)(C)NS(=O)(=O)c1cc(CC(=O)NCc2ccccc2)ccc1-c1cnc([C@H]2CC[C@H](NC(=O)OC3COC3)CC2)s1 [Compound 98, oxetan-3-yl trans-N-[4-[5-[4-[2-(benzylamino)-2-oxo-ethyl]-2-(tert-butylsulfamoyl)phenyl]thiazol-2-yl]cyclohexyl]carbamate] | < 100
27 | CCNS(=O)(=O)c1cc(OCCC(C)C)ccc1-c1cnc([C@H]2CC[C@H](NC(=O)OC(C)C)CC2)s1 [Compound 99, isopropyl trans-N-[4-[5-[2-(ethylsulfamoyl)-4-isopentyloxy-phenyl]thiazol-2-yl]cyclohexyl]carbamate] | 100 to 1000
28 | CCNS(=O)(=O)c1cc(OCCC(C)C)ccc1-c1cnc([C@H]2CC[C@H](NC(=O)OC3COC3)CC2)s1 [Compound 100, oxetan-3-yl trans-N-[4-[5-[2-(ethylsulfamoyl)-4-isopentyloxy-phenyl]thiazol-2-yl]cyclohexyl]carbamate] | 100 to 1000
29 | CC(C)CCOc1ccc(-c2cnc([C@H]3CC[C@H](NC(=O)OC(C)C)CC3)s2)c(S(=O)(=O)NC(C)(C)C)c1 [Compound 101, isopropyl trans-N-[4-[5-[2-(tert-butylsulfamoyl)-4-isopentyloxy-phenyl]thiazol-2-yl]cyclohexyl]carbamate] | 1000 to 10000
30 | CC(C)CCOc1ccc(-c2cnc([C@H]3CC[C@H](NC(=O)OC4COC4)CC3)s2)c(S(=O)(=O)NC(C)(C)C)c1 [Compound 102, oxetan-3-yl trans-N-[4-[5-[2-(tert-butylsulfamoyl)-4-isopentyloxy-phenyl]thiazol-2-yl]cyclohexyl]carbamate] | 1000 to 10000
